Molecules are shown by their SMILES.

The values that follow come from patent US9546179B2, “Heterocycle amido alkyloxy substituted quinazoline derivative and use thereof” (priority 2011, dated 2017).

The assay addresses T1, receptor tyrosine kinase EGFR (Homo sapiens, UniProt P00533).
T1 construct: purchased Shanghai 3bio Technology Co., Ltd. Lot No. 4018780925
Briefly: Inhibitory effect on receptor tyrosine kinase EGFR (ELISA, Poly(Glu, Tyr)4:1, PY99 antibody). To be noted: ATP 4 μM, 1 hour at 37° C. The format is biochemical. As for the experimental part:
Poly(Glu, Tyr)4:1 was diluted into 100 μg/ml by PBS without potassium. Enzyme label plate was coated with 37 μl/well at 37° C. overnight,
The liquid in the wells was removed. The plate was rinsed by T-PBS for 5 minutes, and dried at 37° C. after repeated 3 times.
The testing sample was diluted to the concentration concerned by reaction buffer solution, and added into the wells of the coated enzyme label plate. The concentration diluted should realize 1.0000 μg/ml, 0.1250 μg/ml, 0.0156 μg/ml, 0.00195 μg/ml and 0.00024 μg/ml in the 100 μl reaction.
Adding in ATP solution (4 μM of final concentration) diluted by reaction buffer solution,
Finally, the tyrosine kinase diluted by reaction buffer solution was added, and forming the reaction with 100 μl total volume.
Meanwhile, negative control wells and enzyme-free control wells were prepared. The reaction was kept in the dark wet box for 1 hour at 37° C. The plate was rinsed by T-PBS for three times after the reaction ended, and blocked by 1% BSA […] for 30 min, and then, PY99 antibody (1:1000 diluted by 0.05% PBST with 1% BSA) was added in 100 μl/well. After incubated at 37° C. for 30 minutes, the plate was rinsed by T-PBS for three times, and the goat anti-mouse IgG marked with HRP (1 mg/ml 1:1000 diluted by 0.05% PBST with 1% BSA) was then added in 100 μl/well. After incubated at 37° C. for 30 minutes, the plate was rinsed by T-PBS for three times.
Colorimetric solution OPD was added in 100 μl/well for 20 minutes' reaction in the dark side at the room temperature. Colorimetric substrate solution OPD was the solution of 0.1 mol/L citric acid-disodium hydrogen phosphate buffer (pH 5.0) with 20 mmol/L OPD and 12 mmol/L H2O2 (freshly prepared when using).
50 μl of 2M H2SO4 (2 mol/L sulfuric acid containing 0.1 mol/L sodium sulfate) was added in to terminate the reaction, and the A492 value was read with adjustable wavelength micro late enzyme-labeling instrument VERSAmax.
The inhibition rate of samples is calculated by the following formula: […]
On the technique in general: In an ELISA, binding on a coated surface is turned into a signal by an enzyme label.

T1 sequence (P00533 25-1210): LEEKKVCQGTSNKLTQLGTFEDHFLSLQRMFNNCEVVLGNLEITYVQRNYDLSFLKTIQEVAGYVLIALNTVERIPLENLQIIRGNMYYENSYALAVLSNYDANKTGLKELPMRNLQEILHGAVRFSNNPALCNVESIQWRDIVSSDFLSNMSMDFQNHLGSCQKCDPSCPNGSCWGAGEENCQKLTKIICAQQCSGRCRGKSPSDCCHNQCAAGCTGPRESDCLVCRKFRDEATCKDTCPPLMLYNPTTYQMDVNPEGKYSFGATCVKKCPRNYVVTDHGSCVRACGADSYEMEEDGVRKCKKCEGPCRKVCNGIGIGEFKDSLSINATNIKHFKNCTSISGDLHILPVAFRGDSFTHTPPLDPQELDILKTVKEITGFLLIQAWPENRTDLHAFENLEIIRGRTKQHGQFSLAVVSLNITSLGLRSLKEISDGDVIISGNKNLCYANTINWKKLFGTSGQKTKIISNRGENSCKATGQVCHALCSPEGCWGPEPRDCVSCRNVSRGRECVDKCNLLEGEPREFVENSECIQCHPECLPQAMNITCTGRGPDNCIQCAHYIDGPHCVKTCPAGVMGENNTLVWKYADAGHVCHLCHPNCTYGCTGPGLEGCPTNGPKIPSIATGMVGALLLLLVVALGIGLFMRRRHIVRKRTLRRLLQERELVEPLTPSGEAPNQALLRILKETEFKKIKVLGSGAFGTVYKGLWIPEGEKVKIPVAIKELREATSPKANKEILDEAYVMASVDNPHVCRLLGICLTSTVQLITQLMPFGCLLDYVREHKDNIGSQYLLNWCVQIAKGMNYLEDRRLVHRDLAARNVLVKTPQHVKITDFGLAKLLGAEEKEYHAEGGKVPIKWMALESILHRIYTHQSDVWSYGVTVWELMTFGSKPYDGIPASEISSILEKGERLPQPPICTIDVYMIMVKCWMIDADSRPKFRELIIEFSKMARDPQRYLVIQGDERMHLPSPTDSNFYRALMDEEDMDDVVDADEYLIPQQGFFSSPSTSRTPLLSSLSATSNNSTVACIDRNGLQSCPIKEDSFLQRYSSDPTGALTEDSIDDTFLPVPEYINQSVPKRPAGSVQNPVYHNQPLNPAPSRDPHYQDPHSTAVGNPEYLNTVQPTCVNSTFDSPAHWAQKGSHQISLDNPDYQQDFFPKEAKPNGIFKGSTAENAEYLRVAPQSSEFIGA

`COc1cc2ncnc(Nc3cccc(Cl)c3F)c2cc1OCCCN1CCC2(CCNC2=O)C1` (stereo not shown) [Example 29, 4-(3′-chloro-2′-fluorophenylamino)-6-[3-(2,7-diazaspiro[4.4]nonane-1-ketone-7-yl)-propoxy]-7-methoxyquinazoline]: the IC50 was 10 to 100 nM.

`C#Cc1cccc(Nc2ncnc3cc(OC)c(OCCCN4CCC5(CCOCC5)C4)cc23)c1` [Example 41, 4-(3′-ethynylphenylamino)-6-[3-(8-oxa-2-azaspiro[4.5]decane-2-yl)-propoxy]-7-methoxyquinazoline]: the half-inhibitory concentration (IC50) was 100 to 1000 nM.

For `C#Cc1cccc(Nc2ncnc3cc(OC)c(OCCCN4CCC5(CCOC5)C4)cc23)c1` (stereo not shown) [Example 40, 4-(3′-ethynylphenylamino)-6-[3-(2-oxa-7-azaspiro[4.4]-nonane-7-yl)-propoxy]-7-methoxyquinazoline], the IC50 was 10 to 100 nM.

Take `COc1cc2ncnc(Nc3ccc(F)c(Cl)c3)c2cc1OCCCN1CCC2(CC1)CNC(=O)C2` [Example 94, 4-(3′-chloro-4′-fluorophenylamino)-6-[3-(2,8-diazaspiro[4.5]decane-3-ketone-8-yl)-propoxy]-7-methoxyquinazoline]: the IC50 lay in the range of 10 to 100 nM.

Molecule `C#Cc1cccc(Nc2ncnc3cc(OC)c(OCCCN4CCC5(CC4)CNC(=O)C5)cc23)c1` [Example 43, 4-(3′-ethynylphenylamino)-6-[3-(2,8-diazaspiro[4.5]decane-3-ketone-8-yl)-propoxy]-7-methoxyquinazoline] had an IC50 of 10 to 100 nM.

In turn, `COc1cc2ncnc(Nc3cc(Cl)ccc3F)c2cc1OCCCN1CCC2(CCC(=O)N2)CC1` [Example 25, 4-(5′-chloro-2′-fluorophenylamino)-6-[3-(1,8-diazaspiro[4.5]decane-2-ketone-8-yl)-propoxy]-7-methoxyquinazoline] gave a half-maximal inhibitory concentration (IC50) of 10 to 100 nM.

`C#Cc1cccc(Nc2ncnc3cc(OC)c(OCCCN4CCC5(CCN(C(C)=O)C5)C4)cc23)c1` (stereo not shown) [Example 51, 4-(3′-ethynylphenylamino)-6-[3-(7-acetyl-2,7-diazaspiro[4.4]-nonane-2-yl)-propoxy]-7-methoxyquinazoline]: the IC50 lay within 0.1 to 10 nM.

The molecule `C#Cc1cccc(Nc2ncnc3cc(OC)c(OCCCN4CCC5(CCC(=O)N5)CC4)cc23)c1` [Example 74, 4-(3′-ethynylphenylamino)-6-[3-(1,8-diazaspiro[4.5]decane-2-ketone-8-yl)-propoxy]-7-methoxyquinazoline] showed an IC50 of 10 to 100 nM.

`COc1cc2ncnc(Nc3cc(Cl)ccc3F)c2cc1OCCCN1CCC2(CC1)CCN(C)C2=O` [Example 26, 4-(5′-chloro-2′-fluorophenylamino)-6-[3-(2-methyl-2,8-diazaspiro[4.5]decane-1-ketone-8-yl)-propoxy]-7-methoxyquinazoline]: the concentration for half-maximal inhibition (IC50) lay in the range of 10 to 100 nM.

Turning to `COc1cc2ncnc(Nc3ccc(F)c(Cl)c3)c2cc1OCCCN1C[C@@H]2CN(C(=O)OC(C)(C)C)C[C@@H]2C1` [Example 88, 4-(3′-chloro-4′-fluorophenylamino)-6-[3-(5-tertbutyloxycarbonyl-hexahydropyrrolo[3,4-c]pyrrole-2-yl)-propoxy]-7-methoxyquinazoline], the concentration for half-maximal inhibition (IC50) was > 1000 nM.

`COc1cc2ncnc(Nc3ccc(F)c(Cl)c3)c2cc1OCCCN1CC2(C1)CN(C)C(=O)O2` [Example 91, 4-(3′-chloro-4′-fluorophenylamino)-6-[3-(7-methyl-5-oxa-2,7-diazaspiro[3.4]octane-6-ketone-2-yl)-propoxy]-7-methoxyquinazoline]: the IC50 lay in the range of 10 to 100 nM.

Regarding `C#Cc1cccc(Nc2ncnc3cc(OC)c(OCCCN4CCC5(CC4)CCN(C)C5=O)cc23)c1` [Example 44, 4-(3′-ethynylphenylamino)-6-[3-(2-methyl-2,8-diazaspiro[4.5]decane-3-ketone-8-yl)propoxy]-7-methoxyquinazoline], the IC50 was 10 to 100 nM.

For the molecule `COc1cc2ncnc(Nc3ccc(F)c(Cl)c3)c2cc1OCCCN1CC2CCC(C1)O2` [Example 93, 4-(3′-chloro-4′-fluorophenylamino)-6-[3-(8-oxa-3-aza-azabicyclo[3.2.1]octane-3-yl)-propoxy]-7-methoxyquinazoline], the IC50 was 100 to 1000 nM.

`COc1cc2ncnc(Nc3ccc(F)c(Cl)c3)c2cc1OCCCN1CCC2(C1)CN(C)C(=O)O2` (stereo not shown) [Example 89, 4-(3′-chloro-4′-fluorophenylamino)-6-[3-[3-methyl-1-oxa-3,7-diazaspiro[4.4]nonane-2-ketone-7-yl)-propoxy]-7-methoxyquinazoline] came in with an IC50 of 10 to 100 nM.

`C#Cc1cccc(Nc2ncnc3cc(OC)c(OCCCN4C5CCC4COC5)cc23)c1` [Example 42, 4-(3′-ethynylphenylamino)-6-[3-(3-oxa-8-azabicyclo[3.2.1]octane-8-yl)-propoxy]-7-methoxyquinazoline] gave an IC50 of 100 to 1000 nM.

In turn, `COc1cc2ncnc(Nc3cc(Cl)ccc3F)c2cc1OCCCN1CCC2(CCN(C)C2)C1` (stereo not shown) [Example 64, 4-(5′-chloro-22′-fluorophenylamino)-6-[3-(7-methyl-2,7-diazaspiro[4.4]nonane-2-yl)-propoxy]-7-methoxyquinazoline] returned an IC50 of 10 to 100 nM.

`C#Cc1cccc(Nc2ncnc3cc(OC)c(OCCCN4CC5(COC5)C4)cc23)c1` [Example 38, 4-(3′-ethynylphenylamino)-6-[3-(2-oxa-6-azaspiro[3.3]heptane-6-yl)-propoxy]-7-methoxyquinazoline] yielded an IC50 of 10 to 100 nM.

`COc1cc2ncnc(Nc3cc(Cl)ccc3F)c2cc1OCCCN1CC2(COC2)C1` [Example 14, 4-(5′-chloro-2′-fluorophenylamino)-6-[3-(2-oxa-6-azaspiro[3.3]heptane-6-yl)-propoxy]-7-methoxyquinazoline] had a half-inhibitory concentration (IC50) of 0.1 to 10 nM.

Regarding `C#Cc1cccc(Nc2ncnc3cc(OC)c(OCCCN4CCC5(CC4)CNC(=O)O5)cc23)c1` [Example 46, 4-(3′-ethynylphenylamino)-6-[3-(1-oxa-3,8-diazaspiro[4.5]decane-2-ketone-8-yl)-propoxy]-7-methoxyquinazoline], the IC50 was 10 to 100 nM.

For `COc1cc2ncnc(Nc3cc(Cl)ccc3F)c2cc1OCCCN1CCC2(CC1)CC(=O)N(C)C2` [Example 24, 4-(5′-chloro-2′-fluorophenylamino)-6-[3-(2-methyl-2,8-diazaspiro[4.5]decane-3-ketone-8-yl)-propoxy]-7-methoxyquinazoline], the IC50 was 10 to 100 nM.

In turn, `C#Cc1cccc(Nc2ncnc3cc(OC)c(OCCCN4CCC5(CC4)CC(=O)N(C)C5)cc23)c1` [Example 73, 4-(3′-ethynylphenylamino)-6-[3-(2-methyl-2,8-diazaspiro[4.5]decane-3-ketone-8-yl)-propoxy]-7-methoxyquinazoline] gave an IC50 of 10 to 100 nM.

Regarding `COc1cc2ncnc(Nc3ccc(F)c(Cl)c3)c2cc1OCCCN1CC2(CNC(=O)O2)C1` [Example 90, 4-(3′-chloro-4′-fluorophenylamino)-6-[3-(5-oxa-2,7-diazaspiro[3.4]octane-6-ketone-2-yl)-propoxy]-7-methoxyquinazoline], the 50% inhibitory concentration (IC50) lay within 0.1 to 10 nM.

`COc1cc2ncnc(Nc3cccc(Cl)c3F)c2cc1OCCCN1CC2(C1)CN(C)C(=O)O2` [Example 37, 4-(3′-chloro-2′-fluorophenylamino)-6-[3-(7-methyl-5-oxa-2,7-diazaspiro[3.4]octane-6-ketone-2-yl)-propoxy]-7-methoxyquinazoline] yielded an IC50 of 0.1 to 10 nM.

`COc1cc2ncnc(Nc3cccc(Cl)c3F)c2cc1OCCCN1CC2(CNC(=O)O2)C1` [Example 36, 4-(3′-chloro-2′-fluorophenylamino)-6-[3-(5-oxa-2,7-diazaspiro[3.4]octane-6-ketone-2-yl)-propoxy]-7-methoxyquinazoline] displayed an IC50 of 0.1 to 10 nM.

`COc1cc2ncnc(Nc3cccc(Cl)c3F)c2cc1OCCCN1CCC2(COC2)C1` [Example 28, 4-(3′-chloro-2′-fluorophenylamino)-6-[3-(2-oxa-6-azaspiro[3.4]octane-6-yl)-propoxy]-7-methoxyquinazoline] registered a 50% inhibitory concentration (IC50) of 10 to 100 nM.

`COc1cc2ncnc(Nc3ccc(F)c(Cl)c3)c2cc1OCCN1CC2(COC2)C1` [Example 62, 4-(3′-chloro-4′-fluorophenylamino)-6-[2-(2-oxa-6-azaspiro[3.3]heptane-6-yl)-oxethyl]-7-methoxyquinazoline] gave an IC50 of 100 to 1000 nM.

`COc1cc2ncnc(Nc3ccc(F)c(Cl)c3)c2cc1OCCCN1CC[C@H]2OCC[C@H]21` (relative stereo) [Example 78, 4-(3′-chloro-4′-fluorophenylamino)-6-[3-(cis-hexahydrofuro[3,2-b]pyrrole-4-yl)-propoxy]-7-methoxyquinazoline]: the IC50 fell in the range of 10 to 100 nM.

`COc1cc2ncnc(Nc3ccc(F)c(Cl)c3)c2cc1OCCN1CCC2(CCNC2=O)C1` (stereo not shown) [Example 55, 4-(3′-chloro-4′-fluorophenylamino)-6-[2-(2,7-diazaspiro[4.4]-nonane-1-ketone-7-yl)-oxethyl]-7-methoxyquinazoline] had an IC50 of 100 to 1000 nM.

One may read the IC50 as the point on the concentration scale where inhibition reaches its midpoint. Low values mean greater potency in that assay, high ones weaker potency in that assay.
